Measured values taken from ChEMBL document CHEMBL1152816 (J Med Chem, 2009).

What was measured:
[1] = Inhibition of potato 5LOX by enzyme immunoassay; set-up: species or system Solanum tuberosum
[2] = target: T1, Prostaglandin G/H synthase 1 (Bos taurus, UniProt O62664)
T1 sequence (O62664 whole entry): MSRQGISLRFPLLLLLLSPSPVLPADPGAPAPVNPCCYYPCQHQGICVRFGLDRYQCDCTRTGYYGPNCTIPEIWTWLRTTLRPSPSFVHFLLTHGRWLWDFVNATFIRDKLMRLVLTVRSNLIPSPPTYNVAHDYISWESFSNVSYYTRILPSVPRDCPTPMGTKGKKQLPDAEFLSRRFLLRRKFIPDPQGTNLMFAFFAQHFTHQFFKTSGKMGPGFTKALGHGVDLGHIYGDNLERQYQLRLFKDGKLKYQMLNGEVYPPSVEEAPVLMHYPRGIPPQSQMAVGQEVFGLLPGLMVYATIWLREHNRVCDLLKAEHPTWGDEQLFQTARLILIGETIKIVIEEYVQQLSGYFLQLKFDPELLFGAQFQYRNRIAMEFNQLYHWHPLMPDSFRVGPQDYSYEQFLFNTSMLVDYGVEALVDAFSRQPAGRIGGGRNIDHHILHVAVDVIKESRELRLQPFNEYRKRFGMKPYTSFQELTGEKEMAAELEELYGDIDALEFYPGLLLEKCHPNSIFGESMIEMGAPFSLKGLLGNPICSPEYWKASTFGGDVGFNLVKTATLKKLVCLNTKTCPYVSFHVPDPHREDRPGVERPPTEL
Description: Inhibition of bovine COX1 by enzyme immunoassay

[3] = system: Rattus norvegicus; assay: Antiinflammatory activity against carrageenan-induced foot paw edema in rat at 150 mg/kg, po after 3 hrs; format: functional
[4] = system: Rattus norvegicus; assay: Antiinflammatory activity against carrageenan-induced foot paw edema in po dosed rat after 3 hrs; format: functional
[5] = target: T2, Prostaglandin G/H synthase 2 (Homo sapiens, UniProt P35354); assay: Inhibition of human recombinant COX2 by enzyme immunoassay
T2 sequence (P35354 whole entry): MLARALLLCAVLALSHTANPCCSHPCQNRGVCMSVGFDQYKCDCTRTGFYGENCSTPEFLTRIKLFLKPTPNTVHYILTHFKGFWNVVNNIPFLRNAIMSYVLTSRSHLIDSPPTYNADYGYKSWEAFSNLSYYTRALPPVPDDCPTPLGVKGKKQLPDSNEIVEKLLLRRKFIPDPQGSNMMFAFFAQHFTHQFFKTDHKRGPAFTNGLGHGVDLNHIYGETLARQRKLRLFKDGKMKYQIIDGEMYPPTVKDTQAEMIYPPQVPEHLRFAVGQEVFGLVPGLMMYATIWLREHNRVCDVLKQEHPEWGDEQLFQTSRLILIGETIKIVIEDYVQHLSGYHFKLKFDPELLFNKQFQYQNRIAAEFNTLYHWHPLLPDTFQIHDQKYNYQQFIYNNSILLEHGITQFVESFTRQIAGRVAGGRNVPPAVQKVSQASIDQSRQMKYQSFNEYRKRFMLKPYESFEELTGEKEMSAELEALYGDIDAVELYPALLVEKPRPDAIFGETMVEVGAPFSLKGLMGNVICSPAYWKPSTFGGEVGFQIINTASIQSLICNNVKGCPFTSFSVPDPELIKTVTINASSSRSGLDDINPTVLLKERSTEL

Structure (SMILES)	IC50 [1]	IC50 [2]	Activity [3]	ED50 [4]	IC50 [5]
CS(=O)(=O)c1ccc(-n2nc(C(F)(F)F)cc2-c2ccnc(Cl)c2)cc1	0.47 µM	258 µM	43.1%	> 150 mg/kg	–
CS(=O)(=O)c1ccc(-n2nc(C(F)(F)F)cc2-c2ccn(C(F)F)c(=O)c2)cc1	4.4 µM	7.8 µM	–	42.9 mg/kg	1820 nM
NS(=O)(=O)c1ccc(-n2nc(C(F)(F)F)cc2-c2ccnc(Cl)c2)cc1	0.39 µM	8.3 µM	33.3%	> 150 mg/kg	730 nM
NS(=O)(=O)c1ccc(-n2nc(C(F)(F)F)cc2-c2ccn(C(F)F)c(=O)c2)cc1	5 µM	13.1 µM	–	27.7 mg/kg	690 nM
O=C(O)/C=C/c1ccc(O)c(O)c1 [CAFFEIC ACID]	4 µM	–	–	–	–
CC(C)Cc1ccc(C(C)C(=O)O)cc1 (centres undefined) [IBUPROFEN]	–	–	–	67.4 mg/kg	–
